Columns and labels:
Histone deacetylase 1 = Histone deacetylase 1 (Homo sapiens, UniProt Q13547)
Description: Inhibition of HDAC1 (unknown origin) incubated for 30 mins by fluorescence plate reader assay

[1] = biological target: T1, Protein deacetylase HDAC6 (Homo sapiens, UniProt Q9UBN7)
T1 sequence (Q9UBN7 whole entry): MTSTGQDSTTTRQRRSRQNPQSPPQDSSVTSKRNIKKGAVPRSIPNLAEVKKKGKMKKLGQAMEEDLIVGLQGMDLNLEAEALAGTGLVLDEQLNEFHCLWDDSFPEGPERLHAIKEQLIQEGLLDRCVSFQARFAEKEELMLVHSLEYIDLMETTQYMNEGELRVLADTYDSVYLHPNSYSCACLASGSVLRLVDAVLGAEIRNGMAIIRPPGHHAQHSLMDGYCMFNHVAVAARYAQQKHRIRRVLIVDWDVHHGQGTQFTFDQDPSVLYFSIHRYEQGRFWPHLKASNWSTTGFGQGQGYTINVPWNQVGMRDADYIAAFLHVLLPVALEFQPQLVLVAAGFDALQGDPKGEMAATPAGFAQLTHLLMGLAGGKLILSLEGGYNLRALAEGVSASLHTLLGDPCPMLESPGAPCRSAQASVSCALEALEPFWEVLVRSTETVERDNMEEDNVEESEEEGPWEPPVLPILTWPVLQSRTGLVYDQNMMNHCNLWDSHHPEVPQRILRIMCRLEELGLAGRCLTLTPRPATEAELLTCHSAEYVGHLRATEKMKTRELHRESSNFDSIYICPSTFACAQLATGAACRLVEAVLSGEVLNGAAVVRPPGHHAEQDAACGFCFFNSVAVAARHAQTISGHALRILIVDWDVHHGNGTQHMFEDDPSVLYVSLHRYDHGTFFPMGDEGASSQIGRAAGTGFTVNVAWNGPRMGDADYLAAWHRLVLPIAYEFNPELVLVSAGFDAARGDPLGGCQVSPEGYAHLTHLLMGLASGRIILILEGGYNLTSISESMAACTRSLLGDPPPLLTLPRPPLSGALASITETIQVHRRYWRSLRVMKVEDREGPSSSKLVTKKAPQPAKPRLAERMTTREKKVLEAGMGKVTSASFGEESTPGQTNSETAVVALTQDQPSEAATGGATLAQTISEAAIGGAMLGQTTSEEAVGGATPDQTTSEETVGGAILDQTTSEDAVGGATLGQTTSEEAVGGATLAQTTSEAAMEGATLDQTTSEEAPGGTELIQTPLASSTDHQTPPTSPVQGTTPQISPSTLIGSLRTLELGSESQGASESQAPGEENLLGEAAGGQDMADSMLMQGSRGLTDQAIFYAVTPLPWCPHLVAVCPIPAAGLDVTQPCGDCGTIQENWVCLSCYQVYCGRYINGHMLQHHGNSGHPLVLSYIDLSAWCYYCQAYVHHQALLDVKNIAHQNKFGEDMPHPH
Description: Inhibition of HDAC6 (unknown origin) incubated for 30 mins by fluorescence plate reader assay

Histone deacetylase 2 = Histone deacetylase 2 (Homo sapiens, UniProt Q92769)
Histone deacetylase 2, sequence (Q92769 whole entry): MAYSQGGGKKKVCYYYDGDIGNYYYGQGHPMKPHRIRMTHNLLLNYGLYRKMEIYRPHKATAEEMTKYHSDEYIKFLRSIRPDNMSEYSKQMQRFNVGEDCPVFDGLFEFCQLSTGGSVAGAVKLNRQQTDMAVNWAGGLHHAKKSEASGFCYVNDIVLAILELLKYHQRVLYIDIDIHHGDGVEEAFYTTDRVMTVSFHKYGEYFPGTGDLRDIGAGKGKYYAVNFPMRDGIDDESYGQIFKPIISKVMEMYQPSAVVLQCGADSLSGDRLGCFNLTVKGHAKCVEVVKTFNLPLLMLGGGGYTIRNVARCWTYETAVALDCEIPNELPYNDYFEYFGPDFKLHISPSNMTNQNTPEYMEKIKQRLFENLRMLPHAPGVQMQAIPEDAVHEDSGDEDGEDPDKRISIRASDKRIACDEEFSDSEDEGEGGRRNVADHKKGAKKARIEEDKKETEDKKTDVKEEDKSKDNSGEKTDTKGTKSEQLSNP
Description: Inhibition of HDAC2 (unknown origin) incubated for 30 mins by fluorescence plate reader assay

Histone deacetylase 3 = Histone deacetylase 3 (Homo sapiens, UniProt O15379); test: Inhibition of HDAC3 (unknown origin) incubated for 30 mins by fluorescence plate reader assay
Histone deacetylase 3, sequence (O15379 whole entry): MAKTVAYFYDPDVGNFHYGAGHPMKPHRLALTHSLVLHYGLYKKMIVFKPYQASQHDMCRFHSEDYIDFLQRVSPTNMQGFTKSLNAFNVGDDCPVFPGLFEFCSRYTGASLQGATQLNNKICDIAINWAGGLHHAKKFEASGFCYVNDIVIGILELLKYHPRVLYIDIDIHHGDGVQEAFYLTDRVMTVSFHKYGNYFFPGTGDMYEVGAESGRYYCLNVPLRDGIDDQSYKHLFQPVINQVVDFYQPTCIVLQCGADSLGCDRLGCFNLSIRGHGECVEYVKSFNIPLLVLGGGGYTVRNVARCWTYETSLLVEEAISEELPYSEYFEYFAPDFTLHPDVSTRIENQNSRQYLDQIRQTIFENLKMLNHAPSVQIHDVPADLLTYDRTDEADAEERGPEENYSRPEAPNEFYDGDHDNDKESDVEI

Histone deacetylase 8 = biological target: T2, Histone deacetylase 8 (Homo sapiens, UniProt Q9BY41); test: Inhibition of HDAC8 (unknown origin) incubated for 30 mins by fluorescence plate reader assay
T2 sequence (Q9BY41 whole entry): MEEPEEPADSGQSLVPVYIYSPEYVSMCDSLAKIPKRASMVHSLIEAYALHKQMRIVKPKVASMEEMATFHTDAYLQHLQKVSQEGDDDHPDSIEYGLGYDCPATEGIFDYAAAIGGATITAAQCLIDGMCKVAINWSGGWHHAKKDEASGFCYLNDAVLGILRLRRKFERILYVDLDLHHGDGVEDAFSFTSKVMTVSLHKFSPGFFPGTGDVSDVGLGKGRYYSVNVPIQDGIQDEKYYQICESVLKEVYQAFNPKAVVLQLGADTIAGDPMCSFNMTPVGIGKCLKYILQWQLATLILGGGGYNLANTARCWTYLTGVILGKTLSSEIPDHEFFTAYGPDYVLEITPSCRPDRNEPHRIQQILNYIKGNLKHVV

Histone deacetylase 4 = Histone deacetylase 4 (Homo sapiens, UniProt P56524); test: Inhibition of HDAC4 (unknown origin) incubated for 30 mins by fluorescence plate reader assay
Histone deacetylase 4, sequence (P56524 whole entry): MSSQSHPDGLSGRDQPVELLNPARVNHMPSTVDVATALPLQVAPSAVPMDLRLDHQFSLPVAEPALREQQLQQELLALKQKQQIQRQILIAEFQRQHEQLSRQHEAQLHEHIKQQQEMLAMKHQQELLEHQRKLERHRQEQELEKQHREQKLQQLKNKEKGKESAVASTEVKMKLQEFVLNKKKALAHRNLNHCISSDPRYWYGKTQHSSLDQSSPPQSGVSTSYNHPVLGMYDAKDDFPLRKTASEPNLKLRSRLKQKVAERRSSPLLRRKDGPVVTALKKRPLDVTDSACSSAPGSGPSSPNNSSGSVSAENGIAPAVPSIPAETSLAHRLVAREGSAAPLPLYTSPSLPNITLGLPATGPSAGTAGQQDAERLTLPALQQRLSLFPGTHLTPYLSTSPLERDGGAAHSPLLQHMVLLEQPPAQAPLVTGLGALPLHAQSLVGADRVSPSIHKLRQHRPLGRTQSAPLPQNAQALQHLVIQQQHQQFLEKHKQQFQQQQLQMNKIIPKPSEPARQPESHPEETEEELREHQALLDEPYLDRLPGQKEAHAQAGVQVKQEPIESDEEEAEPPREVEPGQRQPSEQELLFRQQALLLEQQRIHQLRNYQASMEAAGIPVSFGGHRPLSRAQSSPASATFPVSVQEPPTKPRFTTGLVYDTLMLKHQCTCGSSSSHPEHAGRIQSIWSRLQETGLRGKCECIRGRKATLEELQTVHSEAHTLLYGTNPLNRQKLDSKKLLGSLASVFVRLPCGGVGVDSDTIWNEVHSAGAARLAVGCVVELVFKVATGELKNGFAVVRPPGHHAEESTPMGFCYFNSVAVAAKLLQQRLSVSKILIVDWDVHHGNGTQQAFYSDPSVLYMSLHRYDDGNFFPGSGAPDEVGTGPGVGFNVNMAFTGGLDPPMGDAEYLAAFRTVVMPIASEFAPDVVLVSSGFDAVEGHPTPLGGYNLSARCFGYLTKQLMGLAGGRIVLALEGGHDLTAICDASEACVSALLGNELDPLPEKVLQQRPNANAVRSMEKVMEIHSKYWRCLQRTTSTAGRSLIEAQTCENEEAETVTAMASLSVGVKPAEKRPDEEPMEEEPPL

Histone deacetylase 5 = Histone deacetylase 5 (Homo sapiens, UniProt Q9UQL6); test: Inhibition of HDAC5 (unknown origin) incubated for 30 mins by fluorescence plate reader assay
Histone deacetylase 5, sequence (Q9UQL6 whole entry): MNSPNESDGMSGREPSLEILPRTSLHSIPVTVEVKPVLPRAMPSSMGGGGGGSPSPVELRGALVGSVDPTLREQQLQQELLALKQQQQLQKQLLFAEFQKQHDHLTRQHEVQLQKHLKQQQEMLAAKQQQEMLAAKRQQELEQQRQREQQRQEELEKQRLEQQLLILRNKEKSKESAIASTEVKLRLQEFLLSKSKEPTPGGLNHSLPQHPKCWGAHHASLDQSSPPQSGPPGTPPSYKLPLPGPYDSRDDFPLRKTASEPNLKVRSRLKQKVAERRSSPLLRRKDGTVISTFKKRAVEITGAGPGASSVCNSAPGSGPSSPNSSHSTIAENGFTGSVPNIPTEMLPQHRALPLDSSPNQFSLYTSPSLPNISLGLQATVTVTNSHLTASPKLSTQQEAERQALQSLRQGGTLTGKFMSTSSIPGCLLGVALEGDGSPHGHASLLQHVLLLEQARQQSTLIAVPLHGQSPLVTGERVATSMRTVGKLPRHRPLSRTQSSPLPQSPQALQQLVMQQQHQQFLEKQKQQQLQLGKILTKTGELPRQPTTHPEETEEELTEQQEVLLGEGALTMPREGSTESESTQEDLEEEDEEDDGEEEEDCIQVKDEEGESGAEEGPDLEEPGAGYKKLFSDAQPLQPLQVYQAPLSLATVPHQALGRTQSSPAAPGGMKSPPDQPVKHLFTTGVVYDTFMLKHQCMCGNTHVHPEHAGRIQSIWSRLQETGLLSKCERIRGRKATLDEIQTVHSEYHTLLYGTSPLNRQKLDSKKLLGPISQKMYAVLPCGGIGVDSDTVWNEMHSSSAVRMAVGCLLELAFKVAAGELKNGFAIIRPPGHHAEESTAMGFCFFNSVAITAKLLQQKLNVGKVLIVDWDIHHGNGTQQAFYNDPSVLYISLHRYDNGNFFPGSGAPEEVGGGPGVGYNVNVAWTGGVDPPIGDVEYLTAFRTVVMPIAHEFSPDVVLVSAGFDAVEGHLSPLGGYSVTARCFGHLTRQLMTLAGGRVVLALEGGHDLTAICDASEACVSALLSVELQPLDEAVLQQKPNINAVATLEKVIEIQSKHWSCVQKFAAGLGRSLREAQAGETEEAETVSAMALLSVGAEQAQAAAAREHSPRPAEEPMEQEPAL

Histone deacetylase 7 = biological target: T3, Histone deacetylase 7 (Homo sapiens, UniProt Q8WUI4); test: Inhibition of HDAC7 (unknown origin) incubated for 30 mins by fluorescence plate reader assay
T3 sequence (Q8WUI4 whole entry): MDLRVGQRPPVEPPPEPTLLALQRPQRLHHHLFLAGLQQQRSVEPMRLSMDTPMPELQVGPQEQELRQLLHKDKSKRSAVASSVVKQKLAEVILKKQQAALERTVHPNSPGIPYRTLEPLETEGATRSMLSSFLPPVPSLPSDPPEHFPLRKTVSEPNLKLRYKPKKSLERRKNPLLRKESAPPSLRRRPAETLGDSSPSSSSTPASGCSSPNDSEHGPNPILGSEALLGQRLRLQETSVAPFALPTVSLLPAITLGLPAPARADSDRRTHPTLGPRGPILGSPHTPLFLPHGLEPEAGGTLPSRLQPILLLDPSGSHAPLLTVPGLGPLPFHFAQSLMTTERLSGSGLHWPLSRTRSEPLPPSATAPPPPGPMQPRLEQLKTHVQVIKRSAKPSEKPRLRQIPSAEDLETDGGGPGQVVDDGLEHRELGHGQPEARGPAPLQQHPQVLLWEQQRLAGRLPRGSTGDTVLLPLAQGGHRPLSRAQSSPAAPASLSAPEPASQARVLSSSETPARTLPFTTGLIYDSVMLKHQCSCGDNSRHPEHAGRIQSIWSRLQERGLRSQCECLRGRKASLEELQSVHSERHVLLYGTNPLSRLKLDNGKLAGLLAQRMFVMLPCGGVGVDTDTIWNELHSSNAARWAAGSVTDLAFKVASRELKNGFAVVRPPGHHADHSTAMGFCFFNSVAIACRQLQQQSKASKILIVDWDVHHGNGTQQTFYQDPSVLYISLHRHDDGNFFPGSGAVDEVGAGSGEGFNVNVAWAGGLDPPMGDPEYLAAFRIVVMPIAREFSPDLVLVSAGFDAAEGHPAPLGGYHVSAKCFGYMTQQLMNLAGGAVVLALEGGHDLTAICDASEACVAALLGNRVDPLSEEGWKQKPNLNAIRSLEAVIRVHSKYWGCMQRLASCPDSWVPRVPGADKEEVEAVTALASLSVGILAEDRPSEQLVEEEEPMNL

Histone deacetylase 9 = Histone deacetylase 9 (Homo sapiens, UniProt Q9UKV0); test: Inhibition of HDAC9 (unknown origin) incubated for 30 mins by fluorescence plate reader assay
Histone deacetylase 9, sequence (Q9UKV0 whole entry): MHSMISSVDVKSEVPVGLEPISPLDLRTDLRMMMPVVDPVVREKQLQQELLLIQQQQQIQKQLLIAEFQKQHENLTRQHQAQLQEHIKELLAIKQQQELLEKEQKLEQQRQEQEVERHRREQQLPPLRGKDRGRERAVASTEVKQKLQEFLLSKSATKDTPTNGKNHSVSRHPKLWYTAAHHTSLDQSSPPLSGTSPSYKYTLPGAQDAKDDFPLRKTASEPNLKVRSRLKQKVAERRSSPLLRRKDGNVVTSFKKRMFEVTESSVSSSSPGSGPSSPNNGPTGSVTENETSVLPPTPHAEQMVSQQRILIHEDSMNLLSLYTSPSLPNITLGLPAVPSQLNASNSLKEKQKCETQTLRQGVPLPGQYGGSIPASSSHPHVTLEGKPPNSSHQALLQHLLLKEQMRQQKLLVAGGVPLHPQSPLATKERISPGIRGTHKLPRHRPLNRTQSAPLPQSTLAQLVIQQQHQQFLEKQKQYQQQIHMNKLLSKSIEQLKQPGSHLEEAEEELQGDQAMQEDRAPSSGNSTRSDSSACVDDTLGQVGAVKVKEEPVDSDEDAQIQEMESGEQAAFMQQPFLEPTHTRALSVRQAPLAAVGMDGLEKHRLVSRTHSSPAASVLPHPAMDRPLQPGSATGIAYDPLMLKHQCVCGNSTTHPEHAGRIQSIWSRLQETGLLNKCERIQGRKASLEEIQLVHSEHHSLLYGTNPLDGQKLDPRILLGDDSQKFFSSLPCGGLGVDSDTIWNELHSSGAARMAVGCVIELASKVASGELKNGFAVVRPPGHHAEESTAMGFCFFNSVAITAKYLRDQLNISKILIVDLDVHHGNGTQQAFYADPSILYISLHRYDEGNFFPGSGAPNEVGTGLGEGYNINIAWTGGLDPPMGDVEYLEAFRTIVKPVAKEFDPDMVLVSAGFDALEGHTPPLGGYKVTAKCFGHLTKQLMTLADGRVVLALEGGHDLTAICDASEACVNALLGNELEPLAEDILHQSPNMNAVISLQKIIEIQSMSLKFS

[2] = biological target: T4, Polyamine deacetylase HDAC10 (Homo sapiens, UniProt Q969S8); test: Inhibition of HDAC10 (unknown origin) incubated for 30 mins by fluorescence plate reader assay
T4 sequence (Q969S8 whole entry): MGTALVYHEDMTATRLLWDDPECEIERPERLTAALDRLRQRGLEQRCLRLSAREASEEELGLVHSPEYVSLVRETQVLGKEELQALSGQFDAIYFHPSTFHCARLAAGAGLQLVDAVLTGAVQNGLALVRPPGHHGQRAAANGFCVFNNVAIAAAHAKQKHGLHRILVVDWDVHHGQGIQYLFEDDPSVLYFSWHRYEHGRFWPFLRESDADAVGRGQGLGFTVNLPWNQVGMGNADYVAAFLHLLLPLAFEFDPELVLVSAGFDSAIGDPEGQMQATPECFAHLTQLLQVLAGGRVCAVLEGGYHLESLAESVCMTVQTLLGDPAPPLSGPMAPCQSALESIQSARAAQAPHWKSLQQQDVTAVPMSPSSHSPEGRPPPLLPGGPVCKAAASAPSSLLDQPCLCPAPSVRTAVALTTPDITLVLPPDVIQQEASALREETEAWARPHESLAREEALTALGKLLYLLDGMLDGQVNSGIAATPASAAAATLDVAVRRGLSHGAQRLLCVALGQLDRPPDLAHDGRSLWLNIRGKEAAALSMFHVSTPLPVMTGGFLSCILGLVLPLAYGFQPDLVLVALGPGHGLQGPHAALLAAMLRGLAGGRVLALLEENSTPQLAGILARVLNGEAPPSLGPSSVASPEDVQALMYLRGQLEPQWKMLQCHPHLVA

Histone deacetylase 11 = biological target: T5, Histone deacetylase 11 (Homo sapiens, UniProt Q96DB2); test: Inhibition of HDAC11 (unknown origin) incubated for 30 mins by fluorescence plate reader assay
T5 sequence (Q96DB2 whole entry): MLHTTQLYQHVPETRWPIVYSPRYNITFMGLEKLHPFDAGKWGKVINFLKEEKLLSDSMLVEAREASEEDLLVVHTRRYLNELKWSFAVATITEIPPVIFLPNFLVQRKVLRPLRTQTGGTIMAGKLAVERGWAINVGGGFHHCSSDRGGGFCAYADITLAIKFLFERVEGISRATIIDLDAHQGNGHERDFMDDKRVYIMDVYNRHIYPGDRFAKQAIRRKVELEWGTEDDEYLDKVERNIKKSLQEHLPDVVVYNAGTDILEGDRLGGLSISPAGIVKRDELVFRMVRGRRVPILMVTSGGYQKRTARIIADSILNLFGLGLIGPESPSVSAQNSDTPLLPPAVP

Histone deacetylase 1, sequence (Q13547 whole entry): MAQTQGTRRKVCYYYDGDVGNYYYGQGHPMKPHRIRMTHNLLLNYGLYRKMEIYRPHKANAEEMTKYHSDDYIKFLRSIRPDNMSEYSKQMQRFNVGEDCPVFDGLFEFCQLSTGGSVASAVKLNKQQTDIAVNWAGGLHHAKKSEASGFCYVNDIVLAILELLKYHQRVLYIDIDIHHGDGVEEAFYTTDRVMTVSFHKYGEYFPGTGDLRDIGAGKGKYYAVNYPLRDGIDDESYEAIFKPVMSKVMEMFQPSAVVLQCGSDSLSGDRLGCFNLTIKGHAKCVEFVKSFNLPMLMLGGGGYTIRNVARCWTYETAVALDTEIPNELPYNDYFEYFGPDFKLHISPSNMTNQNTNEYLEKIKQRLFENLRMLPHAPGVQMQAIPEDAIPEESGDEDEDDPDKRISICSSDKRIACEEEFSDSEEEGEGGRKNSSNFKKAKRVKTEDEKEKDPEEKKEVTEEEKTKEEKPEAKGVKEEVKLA

Row | Compound | IC50 (Histone deacetylase 1) | IC50 [1] | IC50 (Histone deacetylase 2) | IC50 (Histone deacetylase 3) | IC50 (Histone deacetylase 8) | IC50 (Histone deacetylase 4) | IC50 (Histone deacetylase 5) | IC50 (Histone deacetylase 7) | IC50 (Histone deacetylase 9) | IC50 [2] | IC50 (Histone deacetylase 11)
1 | O=C(NO)c1ccc(CNC(=O)c2ccccc2)cc1 | 941 nM | 87 nM |  |  |  |  |  |  |  |  | 
2 | O=C(NO)c1ccc(CN(Cc2ccccc2)C(=O)c2ccccc2)cc1 | 850 nM |  | > 10000 nM | 1930 nM | 4480 nM | > 10000 nM | > 10000 nM | 4950 nM | > 10000 nM | 1410 nM | > 10000 nM
